Literature values as cited in paper PMC4906314, “Direct interaction of beta-amyloid with Na,K-ATPase as a putative regulator of the enzyme function” (Scientific Reports, 2016).

Target: Na,K-ATPase
Details: at the same conditions; read-out: Kd for complexes of Na,K-ATPase with CTS

**Q.** For `C[C@]12CC[C@H](O)C[C@@]1(O)CC[C@@H]1[C@@H]2CC[C@]2(C)[C@@H](c3ccc(=O)oc3)C[C@H]3O[C@]132` [marinobufagenin], which Kd is on record?
**A.** 1.5 µM
